Test system: serum GH-level
Experiment: TEST I: depression of serum GH-levels in the rat (GH-secretion inhibiting activity)
Type: in vivo
Conditions: male rats under Nembutal narcosis, s.c., activity at 60 minutes, serum GH by radio-immuno-assay
Method: This test (TEST I) is carried out employing male rats under Nembutal narcosis. The test-substance is administered at varying, logarithmically staggered doses employing at least 4 rats per dose. The rats are decapitated 60 minutes after administration, the blood is collected and the serum GH-level determined by radio-immuno-assay.
The above test may be adapted to determine effectiveness over prolonged periods of time, e.g. by decapitating 6 or 18 hours after administration. "Polypeptides of Type-T" as hereinbefore defined may be shown to be active in the above described test method when administered at dosages in the aforesaid range, over longer periods of time, e.g. up to 18 hours.

C[C@H](N)C(=O)NCC(=O)N[C@H]1CSSC[C@@H](C(=O)O)NC(=O)[C@H](CO)NC(=O)[C@H]([C@@H](C)O)NC(=O)[C@H](Cc2ccccc2)NC(=O)[C@H]([C@@H](C)O)NC(=O)[C@H](CCCCN)NC(=O)[C@H](Cc2c[nH]c3ccccc23)NC(=O)[C@H](Cc2ccccc2)NC(=O)[C@H](Cc2ccccc2)NC(=O)[C@H](CC(N)=O)NC(=O)[C@H](CCCCN)NC1=O [somatostatin]
ID50 in TEST I (amount of compound required to effect 50% reduction of the GH-level compared with untreated controls): 0.093 mg/kg
